Target: EGFR (L858R/T790M/C797S) kinase (Homo sapiens, UniProt P00533, C797S/L858R/T790M)
Assay: Kinase activity assay against EGFR(L858R/T790M/C797S) kinase at ATP Km concentration (33P-ATP, filter-binding)
Assay type: biochemical
Conditions: 10 concentrations, 20 min preincubation, 2 h reaction at room temperature
Experimental: The biological activity screening of the compounds will be determined repeatedly at 10 concentrations.
Each sample was prepared into a solution with a concentration of 10 mM. […]
a. Preparing basic buffer solution and quenching buffer solution for experimental kinase […]
b. Preparing compounds for experimental kinase
The test compound was dissolved in 100% dimethyl sulfoxide to a specific concentration. Integra Viaflo Assist was used to assist DMSO for (continuous) dilution.
Kinase was added to the newly prepared basic reaction buffer
Adding any desired cofactors to the substrate solution.
Acoustic technology (Echo 550; Nanoliter range) was used to feed the compounds in 100% of dimethyl sulfoxide into the kinase reaction mixture and incubated at room temperature for 20 minutes.
33P-ATP (specific activity 10 Ci/l) was added to the reaction mixture to start the reaction.
Incubated at room temperature for 2 hours
Radioactivity was detected by filter-binding method.
Kinase activity data was expressed as the percentage of remaining kinase activity in the test sample compared to the vehicle (dimethyl sulfoxide) reaction. Prism ([…] software) was used to obtain IC50 value and curve-fitting.

Sequence of EGFR (L858R/T790M/C797S) kinase (P00533 25-1210 T790M/C797S/L858R): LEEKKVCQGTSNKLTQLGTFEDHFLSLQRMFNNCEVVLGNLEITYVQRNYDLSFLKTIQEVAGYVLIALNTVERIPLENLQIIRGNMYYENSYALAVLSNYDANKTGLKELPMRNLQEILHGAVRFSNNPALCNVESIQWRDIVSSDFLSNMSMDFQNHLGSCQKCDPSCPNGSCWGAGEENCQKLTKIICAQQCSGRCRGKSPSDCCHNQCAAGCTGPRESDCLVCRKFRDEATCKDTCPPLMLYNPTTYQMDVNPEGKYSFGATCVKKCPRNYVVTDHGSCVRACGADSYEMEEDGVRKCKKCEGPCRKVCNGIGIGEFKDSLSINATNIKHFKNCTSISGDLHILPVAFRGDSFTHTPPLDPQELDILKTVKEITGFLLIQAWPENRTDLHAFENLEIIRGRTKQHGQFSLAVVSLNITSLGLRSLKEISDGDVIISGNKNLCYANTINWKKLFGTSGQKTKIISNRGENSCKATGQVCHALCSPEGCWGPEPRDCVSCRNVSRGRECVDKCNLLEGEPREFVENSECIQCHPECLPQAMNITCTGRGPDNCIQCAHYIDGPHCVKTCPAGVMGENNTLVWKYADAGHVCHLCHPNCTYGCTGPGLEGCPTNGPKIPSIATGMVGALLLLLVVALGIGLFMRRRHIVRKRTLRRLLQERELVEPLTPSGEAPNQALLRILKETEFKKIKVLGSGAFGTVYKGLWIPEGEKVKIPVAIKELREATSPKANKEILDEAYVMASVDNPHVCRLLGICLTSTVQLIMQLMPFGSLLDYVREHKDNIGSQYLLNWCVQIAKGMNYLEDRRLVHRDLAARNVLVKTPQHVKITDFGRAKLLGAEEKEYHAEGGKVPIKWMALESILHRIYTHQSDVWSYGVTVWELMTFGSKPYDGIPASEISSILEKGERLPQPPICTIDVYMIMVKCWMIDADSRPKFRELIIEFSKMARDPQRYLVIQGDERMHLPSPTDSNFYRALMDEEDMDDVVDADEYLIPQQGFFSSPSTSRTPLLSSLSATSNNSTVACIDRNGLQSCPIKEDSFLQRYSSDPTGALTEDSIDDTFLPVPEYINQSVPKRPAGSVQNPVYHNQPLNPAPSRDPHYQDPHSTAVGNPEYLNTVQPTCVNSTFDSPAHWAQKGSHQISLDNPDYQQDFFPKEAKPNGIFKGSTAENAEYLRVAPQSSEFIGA

Row | SMILES | IC50 [µM]
1 | [2H]C(F)(F)Oc1cc(N2CC3CC(C2)N3C)ccc1Nc1ncc(Cl)c(Nc2ccccc2P(C)(C)=O)n1 [Compound C3] | 0.13
2 | [2H]C(F)(F)Oc1cc(N2CC3CCNC3C2)ccc1Nc1ncc(Cl)c(Nc2ccccc2P(C)(C)=O)n1 (centres unmarked) [Compound C12] | 0.0747
3 | [2H]C(F)(F)Oc1cc(N2C3CNCC2C3)ccc1Nc1ncc(Cl)c(Nc2ccccc2P(C)(C)=O)n1 [Compound C13] | 0.0166
4 | COc1cc2c(cc1Nc1ncc(Cl)c(Nc3ccccc3P(C)(C)=O)n1)CCCN2C(=O)CN1CCN(C)CC1 [Compound C24] | 0.0195
5 | COc1cc2c(cc1Nc1ncc(Cl)c(Nc3ccccc3P(C)(C)=O)n1)CCCN2CC(=O)N1CCN(C)CC1 [Compound C25] | 0.803
6 | CCc1cc(Nc2ncc(Br)c(Nc3ccc4nccnc4c3P(C)(C)=O)n2)c(OC)cc1N1C[C@H]2CN(C)C[C@H]2C1 [Compound C22] | 0.0003
7 | CCc1cc(Nc2nc(Nc3ccc4nccnc4c3P(C)(C)=O)c3ccccc3n2)c(OC)cc1N1C[C@H]2CN(C)C[C@H]2C1 [Compound C27] | 0.204
8 | CCc1cc(Nc2nc(Nc3ccc4nccnc4c3P(C)(C)=O)c3cccnc3n2)c(OC)cc1N1C[C@H]2CN(C)C[C@H]2C1 [Compound C28] | 0.803
9 | [2H]C(F)(F)Oc1cc(-n2ncc3c2CN(C)C3)c(C)cc1Nc1ncc(Cl)c(Nc2ccccc2P(C)(C)=O)n1 [Compound C10] | 1.85

The remaining molecules from weak to strong by IC50, led by results:

Row | IC50 [µM] | SMILES
10 | 0.321 | [2H]C(F)(F)Oc1cc(N2C3CC2CN(C)C3)ccc1Nc1ncc(Cl)c(Nc2ccccc2P(C)(C)=O)n1 [Compound C5]
11 | 0.181 | [2H]C(F)(F)Oc1cc(-n2cc3c(n2)CN(C)C3)c(C)cc1Nc1ncc(Cl)c(Nc2ccccc2P(C)(C)=O)n1 [Compound C9]
12 | 0.178 | [2H]C(F)(F)Oc1cc(N2CC3CCCNC3C2)ccc1Nc1ncc(Cl)c(Nc2ccccc2P(C)(C)=O)n1 (centres unmarked) [Compound C6]
13 | 0.107 | [2H]C(F)(F)Oc1cc(N2C[C@H]3CNC[C@H]3C2)ccc1Nc1ncc(Cl)c(Nc2ccccc2P(C)(C)=O)n1 [Compound C4]
14 | 0.0696 | [2H]C(F)(F)Oc1cc(N2C[C@H]3COC[C@H]3C2)ccc1Nc1ncc(Cl)c(Nc2ccccc2P(C)(C)=O)n1 [Compound C20]
15 | 0.0223 | [2H]C(F)(F)Oc1cc(-n2cc3c(n2)CNC3)ccc1Nc1ncc(Cl)c(Nc2ccccc2P(C)(C)=O)n1 [Compound C7]
16 | 0.0205 | COc1cc2c(cc1Nc1ncc(Cl)c(Nc3ccccc3P(C)(C)=O)n1)CCCN2CCN1CCN(C)CC1 [Compound C23]
17 | 0.0176 | [2H]C(F)(F)Oc1cc(N2CC3CCN(C)C3C2)ccc1Nc1ncc(Cl)c(Nc2ccccc2P(C)(C)=O)n1 (centres unmarked) [Compound C11]
18 | 0.0166 | [2H]C(F)(F)Oc1cc(N2CC3CC(C2)N3)ccc1Nc1ncc(Cl)c(Nc2ccccc2P(C)(C)=O)n1 [Compound C2]
19 | 0.0137 | [2H]C(F)(F)Oc1cc(-n2cc3c(n2)CN(C)C3)ccc1Nc1ncc(Cl)c(Nc2ccccc2P(C)(C)=O)n1 [Compound C14]
20 | 0.0124 | [2H]C(F)(F)Oc1cc(N2C[C@H]3CN(C)C[C@H]3C2)ccc1Nc1ncc(Cl)c(Nc2ccccc2P(C)(C)=O)n1 [Compound C1]

Source: patent US20230026840A1, “COMPOUND USED AS EGFR KINASE INHIBITOR AND USE THEREOF” (TYK MEDICINES, INC., priority 2019, published 2023)
